Source: patent US20050020643A1, “Pyridinyl amides and compositions thereof for use as fungicides” (priority 2002, published 2005)
Like-named read-outs stand apart in the source and are kept apart here. Marks after values point to notes of the source that are not given here.

Experiments:
Type in all cases: in vivo
[1] = system: Erysiphe graminis f. sp. tritici; experiment: Test A: preventive control of wheat powdery mildew on wheat seedlings; set-up: concentration or dose not given beside the values; conditions: sprayed day before inoculation, rated after 7 days, rate not given
Puccinia recondita = experiment: Test B: preventive control of wheat leaf rust on wheat seedlings; set-up: concentration or dose not given beside the values; conditions: sprayed day before inoculation, rate not given
Pyricularia oryzae = conditions: rice seedlings, sprayed day before inoculation; rate not given
Phytophthora infestans [2] = system: Phytophthora infestans
Plasmopara viticola [3] = experiment: Test E: preventive control of grape downy mildew on grape seedlings
Phytophthora infestans [4] = experiment: whole plant or invertebrate; conditions: for pest or weed control at 100 g/ha: Phytophthora infestans, in Solanum tuberosum, 120 h, read-out: Test F disease control rating; for Test F disease control rating: 100 g/ha on potato seedlings, sprayed day after inoculation
Plasmopara viticola [5] = experiment: Test G: curative control of grape downy mildew on grape seedlings (sprayed after inoculation); conditions: sprayed day after inoculation
[6] = tomato (or potato) seedlings, sprayed day before inoculation, rate not given
[7] = sprayed day before inoculation, rate not given

SMILES	Test A disease control rating [1] [%]	Test B disease control rating (Puccinia recondita) [%]	Test C disease control rating (Pyricularia oryzae) [%]	Test D disease control rating (Phytophthora infestans [2]; [6]) [%]	Test E disease control rating (Plasmopara viticola [3]; [7]) [%]	pest or weed control at 100 g/ha (Phytophthora infestans [4]) [%]	Test G disease control rating (Plasmopara viticola [5]; rate not given) [%]	Test F disease control rating (Phytophthora infestans [4]) [%]	Test D disease control rating (Phytophthora infestans [2]; 100 g/ha on potato seedlings)	Test E disease control rating (Plasmopara viticola [3]; rate 100 g/ha (footnote *))	Test G disease control rating (Plasmopara viticola [5]; rate 100 g/ha (footnote *))
CC(NC(=O)c1c(Cl)ccnc1Cl)c1ncc(Cl)cc1Cl (racemic) [Compound 1, 2,4-Dichloro-N-[1-(3,5-dichloro-2-pyridinyl)ethyl]-3-pyridinecarboxamide]	0	38	0	100	99	87	100	–	–	–	–
CC(NC(=O)c1c(Cl)ccnc1Cl)c1ncc(Br)cc1Cl (racemic) [Compound 2, N-[1-(5-bromo-3-chloro-2-pyridinyl)ethyl]-2,4-dichloro-3-pyridinecarboxamide]	0	19	0	100	100	93	100	–	–	–	–
CC(NC(=O)c1c(Cl)ccnc1Cl)c1ncc(I)cc1Cl (stereo not shown) [Compound 3, N-[1-(3-chloro-5-iodo-2-pyridinyl)ethyl]-2,4-dichloro-3-pyridinecarboxamide]	0	19	–	100	95	88	100	–	–	–	–
O=C(NCc1ncc(Cl)cc1Cl)c1c(Cl)ccnc1Cl [Compound 4, 2,4-Dichloro-N-[(3,5-dichloro-2-pyridinyl)methyl]-3-pyridinecarboxamide]	0	9	–	100	70	100	100	–	–	–	–
CC(NC(=O)c1c(Cl)ccnc1Cl)c1ncc(F)cc1Cl (stereo not shown) [Compound 5]	0	0	–	100	70	–	99	100	–	–	–
O=C(NCc1ncc(Cl)cc1Br)c1c(Cl)ccnc1Cl [Compound 6]	0	0	–	100	70	–	99	100	–	–	–
CC(NC(=O)c1c(Cl)ccnc1Cl)c1ncc(Br)cc1Br (stereo not shown) [Compound 7]	0	45	–	100	100	–	100	100	–	–	–
O=C(NCc1ncc(Cl)cc1I)c1c(Cl)ccnc1Cl [Compound 8]	0	0	–	100	100	–	36	100	–	–	–
O=C(NCc1ncc(Br)cc1Cl)c1c(Cl)ccnc1Cl [Compound 9, N-[(5-bromo-3-chloro-2-pyridinyl)methyl]-2,4-dichloro-3-pyridinecarboxamide]	0	9	–	100	88	99	99	–	–	–	–
Cc1cnc(C(C)NC(=O)c2c(Cl)ccnc2Cl)c(C)c1 (stereo not shown) [Compound 10]	0	0	–	99	57	–	0	0	–	–	–
CC(NC(=O)c1c(Cl)ccnc1Cl)c1ncc(OC(F)F)cc1Cl (stereo not shown) [Compound 11]	0	0	–	100	100	–	100	93	–	–	–
O=C(NCc1ncc(I)cc1Cl)c1c(Cl)ccnc1Cl [Compound 12, N-[(3-chloro-5-iodo-2-pyridinyl)methyl]-2,4-dichloro-3-pyridinecarboxamide]	0	0	–	100	59	98	63	–	–	–	–
Cc1cc(Cl)c(C(=O)NC(C)c2ncc(Br)cc2Cl)c(Cl)n1 (stereo not shown) [Compound 13]	0	68	–	100	100	–	100	100	–	–	–
Cc1cc(Cl)c(C(=O)NCc2ncc(Br)cc2Cl)c(Cl)n1 [Compound 14, N-[(5-bromo-3-chloro-2-pyridinyl)methyl]-2,4-dichloro-6-methyl-3-pyridinecarboxamide]	0	41	–	100	100	98	100	–	–	–	–
Cc1cc(Cl)c(C(=O)NC(C)c2ncc(I)cc2Cl)c(Cl)n1 (stereo not shown) [Compound 15, N-[1-(3-chloro-5-iodo-2-pyridinyl)ethyl]-2,4-dichloro-6-methyl-3-pyridinecarboxamide]	0	0	–	100	100	70	100	–	–	–	–
Cc1cc(Cl)c(C(=O)NCc2ncc(I)cc2Cl)c(Cl)n1 [Compound 16, N-[(3-chloro-5-iodo-2-pyridinyl)methyl]-2,4-dichloro-6-methyl-3-pyridinecarboxamide]	0	32	–	100	100	83	95	–	–	–	–
CC(NC(=O)c1c(I)ccnc1F)c1ncc(Br)cc1Br (stereo not shown) [Compound 31]	0	–	–	100	100	–	100	79	–	–	–
Cc1cc(Cl)c(C(=O)NC(C)c2ncc(Br)cc2Br)c(Cl)n1 (stereo not shown) [Compound 32]	0	–	–	100	100	–	99	82	–	–	–
CC(NC(=O)c1c(I)ccnc1F)c1ncc(Br)cc1Cl (stereo not shown) [Compound 33]	0	–	–	100	100	–	100	100	–	–	–
CC(NC(=O)c1c(Cl)ccnc1Cl)c1ncc(Cl)cc1Br (stereo not shown) [Compound 34]	0	–	–	100	100	–	100	99	–	–	–
O=C(NCc1ncc(I)cc1Br)c1c(Cl)ccnc1Cl [Compound 35]	0	–	–	–	–	–	–	96	100# %	99* %	50* %
CC(NC(=O)c1c(Cl)ccnc1Cl)c1ncc(I)cc1Br (stereo not shown) [Compound 36]	0	–	–	–	–	–	–	92	100# %	100* %	92* %
CC(NC(=O)c1c(Br)ccnc1F)c1ncc(Br)cc1Cl (stereo not shown) [Compound 37]	0	–	–	100	100	–	100	100	–	–	–
CC(NC(=O)c1c(Br)ccnc1F)c1ncc(Cl)cc1Cl (stereo not shown) [Compound 38]	0	–	–	100	100	–	100	100	–	–	–
CC(NC(=O)c1c(Br)ccnc1F)c1ncc(Br)cc1Br (stereo not shown) [Compound 39]	0	–	–	100	100	–	100	100	–	–	–
Cc1cc(Cl)c(C(=O)NCc2ncc(Cl)cc2Br)c(Cl)n1 [Compound 40]	0	–	–	100	100	–	99	95	–	–	–
Cc1cc(Cl)c(C(=O)NC(C)c2ncc(Cl)cc2Br)c(Cl)n1 (stereo not shown) [Compound 41]	0	–	–	100	100	–	100	97	–	–	–
Cc1cc(Cl)c(C(=O)NCc2ncc(I)cc2Br)c(Cl)n1 [Compound 42]	0	–	–	100	100	–	100	93	–	–	–
Cc1cc(Cl)c(C(=O)NC(C)c2ncc(I)cc2Br)c(Cl)n1 (stereo not shown) [Compound 43]	0	–	–	100	100	–	100	90	–	–	–
